Data reported in patent publication US12617779B2, “Self degradation-type CDK9 inhibitor prodrug and liposome encapsulating same” (Sumitomo Pharma Co., Ltd., priority 2021, dated 2026).

Assay: Evaluation of conversion rate to active form in buffer solution (Experimental Example 1)
Assay type: physicochemical
Settings: for Stability in buffer solution at pH 5: pH 5, 37° C., up to 2 or 3 hours
Outline: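 HPLC read-out: residual parent and Alvocidib production rate after 0, 0.5, 1, 2 and 3 hours. Compounds sat at 25 umol/L, 37° C, in buffers from pH 5.0 to 7.4 (50 mM citrate below pH 6.0, 50 mM phosphate otherwise).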

**Q.** What does the source list for C[C@H](N)C(=O)O[C@@H]1CN(C)CC[C@@H]1c1c(O)cc(O)c2c(=O)cc(-c3ccccc3Cl)oc12 [Comparative Example 7, reference compound]?
**A.** Production rate of Alvocidib (pH5.0, 0 hr): 2.8%; Residual rate (pH5.0, 0 hr): 96.8%; Stability in buffer solution at pH 5: unstable; Production rate of Alvocidib (pH5.0, 0.5 hr): 5.7%; Residual rate (pH5.0, 0.5 hr): 93.9%; Production rate of Alvocidib (pH5.0, 1 hr): 9.7%; Residual rate (pH5.0, 1 hr): 90.1%; Production rate of Alvocidib (pH5.0, 2 hr): 15.7%; Residual rate (pH5.0, 2 hr): 83.8%; Production rate of Alvocidib (pH5.0, 3 hr): 21.9%; Residual rate (pH5.0, 3 hr): 77.6%; Production rate of Alvocidib (pH5.5, 0 hr): 2.7%; Residual rate (pH5.5, 0 hr): 97.0%; Production rate of Alvocidib (pH5.5, 0.5 hr): 7.9%; Residual rate (pH5.5, 0.5 hr): 91.9%; Production rate of Alvocidib (pH5.5, 1 hr): 14.3%; Residual rate (pH5.5, 1 hr): 85.4%; Production rate of Alvocidib (pH5.5, 2 hr): 23.8%; Residual rate (pH5.5, 2 hr): 75.9%; Production rate of Alvocidib (pH5.5, 3 hr): 33.1%; Residual rate (pH5.5, 3 hr): 66.6%; Production rate of Alvocidib (pH6.0, 0 hr): 3.4%; Residual rate (pH6.0, 0 hr): 96.4%; Production rate of Alvocidib (pH6.0, 0.5 hr): 26.1%; Residual rate (pH6.0, 0.5 hr): 73.9%; Production rate of Alvocidib (pH6.0, 1 hr): 48.3%; Residual rate (pH6.0, 1 hr): 51.7%; Production rate of Alvocidib (pH6.0, 2 hr): 70.9%; Residual rate (pH6.0, 2 hr): 28.9%; Production rate of Alvocidib (pH6.0, 3 hr): 84.8%; Residual rate (pH6.0, 3 hr): 15.2%; Production rate of Alvocidib (pH6.5, 0 hr): 3.9%; Residual rate (pH6.5, 0 hr): 96.0%; Production rate of Alvocidib (pH6.5, 0.5 hr): 34.7%; Residual rate (pH6.5, 0.5 hr): 65.3%; Production rate of Alvocidib (pH6.5, 1 hr): 61.2%; Residual rate (pH6.5, 1 hr): 38.8%; Production rate of Alvocidib (pH6.5, 2 hr): 83.2%; Residual rate (pH6.5, 2 hr): 16.8%; Production rate of Alvocidib (pH6.5, 3 hr): 93.4%; Residual rate (pH6.5, 3 hr): 6.6%; Production rate of Alvocidib (pH7.0, 0 hr): 4.1%; Residual rate (pH7.0, 0 hr): 95.9%; Production rate of Alvocidib (pH7.0, 0.5 hr): 37.3%; Residual rate (pH7.0, 0.5 hr): 62.6%; Production rate of Alvocidib (pH7.0, 1 hr): 64.3%; Residual rate (pH7.0, 1 hr): 35.5%; Production rate of Alvocidib (pH7.0, 2 hr): 85.8%; Residual rate (pH7.0, 2 hr): 14.2%; Production rate of Alvocidib (pH7.0, 3 hr): 94.9%; Residual rate (pH7.0, 3 hr): 5.1%; Production rate of Alvocidib (pH7.4, 0 hr): 4.2%; Residual rate (pH7.4, 0 hr): 95.3%; Production rate of Alvocidib (pH7.4, 0.5 hr): 36.7%; Residual rate (pH7.4, 0.5 hr): 63.0%; Production rate of Alvocidib (pH7.4, 1 hr): 63.5%; Residual rate (pH7.4, 1 hr): 36.3%; Production rate of Alvocidib (pH7.4, 2 hr): 84.7%; Residual rate (pH7.4, 2 hr): 15.3%; Production rate of Alvocidib (pH7.4, 3 hr): 94.4%; Residual rate (pH7.4, 3 hr): 5.6%

**Q.** Which “Production rate of Alvocidib” value (pH5.0, 0 hr) does the source give for CN1CC[C@H](c2c(O)cc(O)c3c(=O)cc(-c4ccccc4Cl)oc23)[C@H](OC(=O)[C@@H](N)CO)C1 [Comparative Example 9, reference compound] here?
**A.** 5.0%

**Q.** And the Residual rate (pH5.0, 0 hr)?
**A.** 85.7%

**Q.** What about the “Stability in buffer solution at pH 5” value of the same molecule?
**A.** unstable

**Q.** And the “Production rate of Alvocidib” value (pH5.0, 0.5 hr)?
**A.** 7.1%

**Q.** What about the Residual rate (pH5.0, 0.5 hr) of the same molecule?
**A.** 84.0%

**Q.** And the “Production rate of Alvocidib” value (pH5.0, 1 hr)?
**A.** 8.7%

**Q.** And the Residual rate (pH5.0, 1 hr)?
**A.** 82.6%

**Q.** And the “Production rate of Alvocidib” value (pH5.0, 2 hr)?
**A.** 12.8%

**Q.** And the Residual rate (pH5.0, 2 hr)?
**A.** 79.4%

**Q.** What about the “Production rate of Alvocidib” value (pH5.0, 3 hr) of the same molecule?
**A.** 15.6%

**Q.** And the Residual rate (pH5.0, 3 hr)?
**A.** 77.0%

**Q.** What about the “Production rate of Alvocidib” value (pH5.5, 0 hr) of the same molecule?
**A.** 4.9%

**Q.** What about the Residual rate (pH5.5, 0 hr) of the same molecule?
**A.** 86.0%

**Q.** And the “Production rate of Alvocidib” value (pH5.5, 0.5 hr)?
**A.** 8.5%

**Q.** And the Residual rate (pH5.5, 0.5 hr)?
**A.** 83.3%

**Q.** And the “Production rate of Alvocidib” value (pH5.5, 1 hr)?
**A.** 11.3%

**Q.** What about the Residual rate (pH5.5, 1 hr) of the same molecule?
**A.** 81.1%

**Q.** What about the “Production rate of Alvocidib” value (pH5.5, 2 hr) of the same molecule?
**A.** 17.7%

**Q.** What about the Residual rate (pH5.5, 2 hr) of the same molecule?
**A.** 78.4%

**Q.** And the “Production rate of Alvocidib” value (pH5.5, 3 hr)?
**A.** 22.4%

**Q.** And the Residual rate (pH5.5, 3 hr)?
**A.** 74.2%

**Q.** And the “Production rate of Alvocidib” value (pH6.0, 0 hr)?
**A.** 5.0%

**Q.** What about the Residual rate (pH6.0, 0 hr) of the same molecule?
**A.** 86.0%

**Q.** What about the “Production rate of Alvocidib” value (pH6.0, 0.5 hr) of the same molecule?
**A.** 17.1%

**Q.** And the Residual rate (pH6.0, 0.5 hr)?
**A.** 76.5%

**Q.** And the “Production rate of Alvocidib” value (pH6.0, 1 hr)?
**A.** 26.0%

**Q.** And the Residual rate (pH6.0, 1 hr)?
**A.** 69.2%

**Q.** What about the “Production rate of Alvocidib” value (pH6.0, 2 hr) of the same molecule?
**A.** 43.4%

**Q.** What about the Residual rate (pH6.0, 2 hr) of the same molecule?
**A.** 53.9%

**Q.** What about the “Production rate of Alvocidib” value (pH6.0, 3 hr) of the same molecule?
**A.** 54.0%

**Q.** And the Residual rate (pH6.0, 3 hr)?
**A.** 44.3%

**Q.** And the “Production rate of Alvocidib” value (pH6.5, 0 hr)?
**A.** 5.1%

**Q.** What about the Residual rate (pH6.5, 0 hr) of the same molecule?
**A.** 86.0%

**Q.** What about the “Production rate of Alvocidib” value (pH6.5, 0.5 hr) of the same molecule?
**A.** 20.9%

**Q.** What about the Residual rate (pH6.5, 0.5 hr) of the same molecule?
**A.** 74.7%

**Q.** And the “Production rate of Alvocidib” value (pH6.5, 1 hr)?
**A.** 31.1%

**Q.** What about the Residual rate (pH6.5, 1 hr) of the same molecule?
**A.** 66.2%

**Q.** What about the “Production rate of Alvocidib” value (pH6.5, 2 hr) of the same molecule?
**A.** 49.6%

**Q.** And the Residual rate (pH6.5, 2 hr)?
**A.** 49.4%

**Q.** What about the “Production rate of Alvocidib” value (pH6.5, 3 hr) of the same molecule?
**A.** 60.2%

**Q.** What about the Residual rate (pH6.5, 3 hr) of the same molecule?
**A.** 39.1%

**Q.** What about the “Production rate of Alvocidib” value (pH7.0, 0 hr) of the same molecule?
**A.** 5.3%

**Q.** What about the Residual rate (pH7.0, 0 hr) of the same molecule?
**A.** 85.9%

**Q.** What about the “Production rate of Alvocidib” value (pH7.0, 0.5 hr) of the same molecule?
**A.** 21.7%

**Q.** And the Residual rate (pH7.0, 0.5 hr)?
**A.** 75.8%

**Q.** And the “Production rate of Alvocidib” value (pH7.0, 1 hr)?
**A.** 30.7%

**Q.** What about the Residual rate (pH7.0, 1 hr) of the same molecule?
**A.** 68.1%

**Q.** What about the “Production rate of Alvocidib” value (pH7.0, 2 hr) of the same molecule?
**A.** 47.2%

**Q.** What about the Residual rate (pH7.0, 2 hr) of the same molecule?
**A.** 52.8%

**Q.** And the “Production rate of Alvocidib” value (pH7.0, 3 hr)?
**A.** 57.1%

**Q.** What about the Residual rate (pH7.0, 3 hr) of the same molecule?
**A.** 42.9%

**Q.** And the “Production rate of Alvocidib” value (pH7.4, 0 hr)?
**A.** 5.6%

**Q.** And the Residual rate (pH7.4, 0 hr)?
**A.** 85.3%

**Q.** What about the “Production rate of Alvocidib” value (pH7.4, 0.5 hr) of the same molecule?
**A.** 22.1%

**Q.** And the Residual rate (pH7.4, 0.5 hr)?
**A.** 76.2%

**Q.** What about the “Production rate of Alvocidib” value (pH7.4, 1 hr) of the same molecule?
**A.** 29.7%

**Q.** And the Residual rate (pH7.4, 1 hr)?
**A.** 70.3%

**Q.** And the “Production rate of Alvocidib” value (pH7.4, 2 hr)?
**A.** 44.0%

**Q.** What about the Residual rate (pH7.4, 2 hr) of the same molecule?
**A.** 56.0%

**Q.** What about the “Production rate of Alvocidib” value (pH7.4, 3 hr) of the same molecule?
**A.** 53.3%

**Q.** And the Residual rate (pH7.4, 3 hr)?
**A.** 46.7%
